# Results as given in BindingDB's records for doi:10.1016/j.bmcl.2015.05.100 (Eli Lilly, 2015).
# pIC50: −log10 of the molar value.
# Experiments:
# [1] = molecular target: Cyclin-dependent kinase 4 (Homo sapiens, UniProt P11802); assay: Inhibition of CDK4 (unknown origin) using GST-fused pRb (792 to 928) as substrate preincubated for 2 mins followed by [gamma-32P]-ATP addition measured after 15 mins by beta plate counting analysis
# [2] = molecular target: Cyclin-dependent kinase 2 (Homo sapiens, UniProt P24941); assay: Inhibition of CDK2 (unknown origin) using GST-fused pRb (792 to 928) as substrate preincubated for 2 mins followed by [gamma-32P]-ATP addition measured after 15 mins by beta plate counting analysis
# Sequence of Cyclin-dependent kinase 4 (P11802 whole entry, the tested form may be a part): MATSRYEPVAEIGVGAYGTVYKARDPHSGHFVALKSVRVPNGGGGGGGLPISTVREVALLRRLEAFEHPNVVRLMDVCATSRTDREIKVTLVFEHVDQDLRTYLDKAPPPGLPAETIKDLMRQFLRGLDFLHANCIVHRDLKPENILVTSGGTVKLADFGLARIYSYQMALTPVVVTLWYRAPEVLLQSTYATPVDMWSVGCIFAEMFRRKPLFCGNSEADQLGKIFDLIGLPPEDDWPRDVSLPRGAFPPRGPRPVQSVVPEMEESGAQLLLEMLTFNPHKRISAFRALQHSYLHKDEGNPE
pIC50 [1],pIC50 [2],SMILES
8.70,–,"CC(=O)c1c(C)c2cnc(Nc3ccc(N4CCNCC4)cc3)nc2n(C2CCCC2)c1=O [8-cyclopentyl-6-acetyl-5-methyl-2-{[4-(piperazin-1-yl)phenyl]amino}-7H,8H-pyrido[2,3-d]pyrimidin-7-one]"
–,6.36,"Cc1c(Br)c(=O)n(C2CCCC2)c2nc(Nc3ccc(N4CCNCC4)cc3)ncc12 [6-bromo-8-cyclopentyl-5-methyl-2-{[4-(piperazin-1-yl)phenyl]amino}-7H,8H-pyrido[2,3-d]pyrimidin-7-one]"
8.70,7.37,O=c1c(Br)cc2cnc(Nc3ccc(N4CCNCC4)cc3)nc2n1C1CCCC1
